The test system of one assay is normal rats. The following applies: repeated administration; cited from earlier work.
The test system of assay [1] is mouse bone marrow cells (CFU-E). In words: CFU-E colony assay with EPO mimetic peptide EMP1. The assay is classed as cell-based. As for the experimental part:
After a female BDF-1 mouse at 10 weeks of age (Charles River Japan, Inc.) was killed by the cervical dislocation method, bone marrow cells were isolated from the femur and suspended in an IMDM medium (Invitrogen) containing 10% FCS (JRH Bioscience Inc). The bone marrow cells were centrifuged at 1500 rpm for 10 minutes at 4° C. and the precipitated bone marrow cells were resuspended in an amino acid-free IMDM medium and the number of cells was measured. To a dish with a diameter of 3.5 cm (Nalgen Nunc, Inc. International), 1 ml of a methyl cellulose semi-solid medium in which the bone marrow cells were suspended {30 μM EMP1, 100 μM 2-mercaptoethanol (Wako Pure Chemical Industries, Ltd.), 24% FCS (JRH Bioscience Inc.), 0.8% methyl cellulose (methyl cellulose containing IMDM solution […], Stem Cell Technologies, Inc.), 2% BSA (SIGMA-ALDRICH Japan K.K.), 1×10^5 cells/ml of bone marrow cells} containing arginine at a concentration of 170 μM was added (which is equal to an IMDM medium whose concentration of the amino acid composition is one-third and which includes FCS at 24%). […] Then, the number of CFU-E colonies was measured using an inverted microscope. […] The data is expressed as a mean value ±SEM. […]

For assay [2] the test system is unchanged. The assay can be described thus: in vitro mouse CFU-E colony assay (methyl cellulose semi-solid medium, with rHuEPO). The assay is classed as cell-based. Here is the method: In the case of oral administration to rats, the blood arginine concentration reaches about 600 μM by a single-dose administration of arginine at 1.2 g/kg. Therefore, it is expected that the number of CFU-E increases in a dose-dependent manner by such an oral administration. Also in humans, it is expected that the number of CFU-E increases as the concentration of arginine in the blood increases by the oral administration.
An in vitro mouse CFU-E colony assay was carried out in accordance with the following method. After a female BDF-1 mouse at 10 weeks of age (Charles River Japan, Inc.) was killed by the cervical dislocation method, bone marrow cells were isolated from the femur and suspended in an IMDM medium (Invitrogen) containing 10% FCS (JRH Bioscience Inc). The bone marrow cells were centrifuged at 1500 rpm for 10 minutes at 4° C. and the precipitated bone marrow cells were resuspended in an amino acid-free IMDM medium and the number of cells was measured. […] Then, the number of CFU-E colonies was measured using an inverted microscope. […]
In the graph, * indicates P<0.05. The data is expressed as a mean value±SEM. […]

“Also recorded” adds a separate entry of the source. Positions of bridges follow the written chain, without caps; N, C: chain ends. No end group written: not given here.

For `N=C(N)NCCC[C@H](N)C(=O)O` [arginine], the amount of hemoglobin entry in the assay on normal rats is recorded as “increased”. Further, in the assay with normal rats, the “amount of red blood cells” value was “increased”. Moreover, the “number of CFU-E colonies” value was “increased the number of CFU-E” in assay [1] (arginine 770 μM vs 170 μM, 30 μM EMP1, 48 hours, P<0.05) and “increased the number of CFU-E; also recorded: further increases CFU-E; also recorded: significantly increases” in assay [2] (arginine 600 μM vs 170 μM, 1 IU/ml rHuEPO, 48 hours, per 2.2×10^5 bone marrow cells, P<0.05). Further, the “combined effect of arginine with EPO on CFU-E” value in assay [2] (arginine concomitantly with a sufficient amount of EPO) is listed as “synergistic effect”.

As for “GGTYSCHFGPLTWVCKPQGG-NH2 (disulfide 6-15; N-terminus assumed; SMILES CC(C)C[C@@H]1NC(=O)[C@@H]2CCCN2C(=O)CNC(=O)[C@H](Cc2ccccc2)NC(=O)[C@H](Cc2c[nH]cn2)NC(=O)[C@@H](NC(=O)[C@H](CO)NC(=O)[C@H](Cc2ccc(O)cc2)NC(=O)[C@@H](NC(=O)CNC(=O)CN)[C@@H](C)O)CSSC[C@@H](C(=O)N[C@@H](CCCCN)C(=O)N2CCC[C@H]2C(=O)N[C@@H](CCC(N)=O)C(=O)NCC(=O)NCC(N)=O)NC(=O)[C@H](C(C)C)NC(=O)[C@H](Cc2c[nH]c3ccccc23)NC(=O)[C@H]([C@@H](C)O)NC1=O) [EMP1, EPO mimetic peptide described in Science, vol; 273, pp. 458-463 (1996), reference compound]”, the “amount of EMP1 for the highest action (CFU-E colonies)” value in assay [1] (same condition as FIG. 2A, FIG. 2B) is at least 10 µM.
